The test system of test [1] is non-canonical NF-κB pathway (p100, p52). The test can be described thus: Western blot of NF-κB pathway components in HeLa cells. Format: cell-based, human. From the text:
Western Blot Analyses. Homogenized lysates of the cell pellets from ˜2×10^6 HeLa cells or DCs, mock or pre-treated with the optimal concentration of NF-κB activators or inhibitors were used for sample preparation. Whole cell proteins were isolated using the RIPA lysis buffer (Sigma-Aldrich Co.) and cytoplasmic and nuclear proteins were extracted using a commercial kit (NE-PER Extraction Reagent Kit, Pierce Biotech, Rockford, Ill., USA) as per the manufacturer's protocol in the presence of a protease inhibitor cocktail (Halt™ Protease Inhibitor Cocktail Kit, Pierce Biotech). The protein extracts were boiled for 5 min under reducing conditions [SDS-sample buffer containing 62.5 mM Tris-HCl (pH 6.8 at 25° C.), 2% wt./vol. SDS, 10% glycerol, 50 mM DTT, 0.01% wt./vol. bromo-phenol blue (Cell Signaling Technology, Inc.)] and stored at −86° C. until further analysis. Equal volumes of samples were run on 4-15% SDS-PAGE (Bio-Rad, Hercules, Calif., USA). […] The intensity of the protein bands was measured with Adobe Photoshop CS3 Software® and normalized to proteins levels from the housekeeping gene products used as loading controls.

The test system of test [2] is primary human dendritic cells. The test can be described thus: FACS analyses of markers of maturation (CD83, CD86) of primary human dendritic cells. Format: cell-based. The protocol: Cells, Antibodies and Chemicals. HeLa cells were obtained from the American Type Culture Collection (Rockville, Md., USA) and maintained as monolayer cultures in Iscove's-modified Dulbecco's medium (IMDM, Invitrogen, Inc., Carlsbad, Calif., USA) supplemented with 10% newborn calf serum (NCS) (Lonza, Inc., Basel, SWITZERLAND) and antibiotics. Leukapheresis-derived PBMCs were resuspended in serum-free AIM-V medium (Lonza, Inc.) and semi-adherent cell fractions were incubated in serum-free AIM-V medium supplemented with recombinant human IL-4 (500 U/mL) and GM-CSF (800 U/mL) (R&D Systems, MN, USA). Cells were treated with NF-κB modulators ([…]), and cytokines cocktail including 10 ng/mL TNF-α, 10 ng/mL IL-1, 10 ng/mL IL-6, […] (R&D Systems) for 20 hr. Cells were harvested, characterized to ensure they met the typical phenotype of mature DCs (CD83, RPE, murine IgG1, CD86, FITC, murine IgG1; Invitrogen, Inc.). All primary and secondary antibodies were purchased from Cell Signaling Technology, Inc. (Danvers, Mass., USA) or Santa Cruz Biotechnology, Inc (Santa Cruz, Calif., USA). NF-kB activators [Etoposide (VP16), Aphidicolin, Hydroxyurea (HU)] and NF-kB inhibitors [Bay11-7082 (Bay11), Pyrrolidine dithiocarbamate (PDTC)] were purchased from Sigma-Aldrich Co. (St. Louis, Mo., USA). These compounds were re-suspended in either DMSO (Sigma-Aldrich Co.) or in sterile, DNAase-, RNAase-free water (Invitrogen, Inc.) as per the manufacturer's instructions.

For test [3], the system named is pro-inflammatory cytokines and chemokines. As to the kind of experiment: Gene-expression analysis of innate immune response in liver by RT-PCR. The test is classed as in vivo, C57BL/6J mice. As for the experimental part:
Recombinant AAV Vector Transduction Studies in Vivo. Groups of 6-weeks old normal C57BL/6J mice (Jackson Laboratories, Bar Harbor, Me., USA) were administered intra-peritoneally, with a single dose (20 mg/kg) of NF-κB inhibitor Bay11, in a 200-μL volume diluted in DMSO (day 0). Animals injected with only the DMSO carrier solvent were considered as baseline (mock) group (n=75) and animals injected with Bay11 were the test group (n=75). At this point, the animals from mock and Bay11 groups were randomized to receive either phosphate buffered saline (PBS, pH 7.4) or WT-AAV or TM-AAV vectors (n=25 mice each group). On day 1, ˜1×10^11 viral genome (vg) particles of WT-AAV2-EGFP or TM-AAV2-EGFP vectors or PBS were administered intravenously via the tail vein. To measure the modulation of immune response to AAV, 5 animals each from PBS-, WT-AAV-, or TM-AAV vector-injected groups were sacrificed by carbon-dioxide inhalation at different time points post-vector administration (2, 6, 10, 24 hrs and day 10). Hepatic lobes were collected, cross-sectioned and mounted on slides to study the effect of Bay11 on AAV-mediated EGFP expression (from day 10 mice). […]
Gene-Expression Analysis of Innate Immune Response by RT-PCR Assay. […] Data were captured and analyzed using an ABI Prism 7500 Sequence Detection System with v1.1 Software (Applied Biosystems). The baseline was determined automatically for the 18S rRNA and for other genes. Thresholds were determined manually for all genes. Gene expression was measured by the comparative threshold cycle (Ct) method. The parameter threshold cycle (Ct) was defined as the cycle number at which the reporter fluorescence generated by the cleavage of the probe passed a fixed threshold above baseline. […] Relative gene expression was determined for each group of treated and untreated animals and values >2.6 and <0.38 were considered as significant up-regulations and down-regulations between the groups and was calculated by assessing the variability in the 96 well plates used to measure specific gene expression.

Where [4] appears, read: Mature DCs + AAV + Cytokines + modulator.

SMILES strings stand for the structures.

`Cc1ccc(S(=O)(=O)/C=C/C#N)cc1` [Bay11, Bay11-7082]: the “AAV-induced increase of p100 and p52” value in test [1] is “ablated”. Moreover, in test [2], the “maturation of DCs (CD83, CD86)” value is reported as “inhibition of cytokine-mediated maturation”. For the same compound, in test [2] (setting [4]), the “Geometric means of levels of expression in cells expressing CD83” value was determined as 16.88 and the “Geometric means of levels of expression in cells expressing CD86” value turned out to be 10.11. Besides, the “levels of pro-inflammatory cytokines or chemokines (IL-1α, IL-6, TNFα, IL-12α, KC, RANTES) in liver” value in test [3] (Bay11 20 mg/kg i.p. 12 hrs prior to vector, 2 hrs post-vector) is listed as “significantly reduced”. In test [3] (Bay11 prior to gene transfer, C57BL/6 mice), the “decrease in AAV vector-induced production of pro-inflammatory cytokines and chemokines” value was “up to 7 fold”. Besides, the “up-regulation of type I interferon expression by WT-AAV and TM-AAV vectors” value in test [3] (mouse, in vivo) is reported as “unaffected”.
